Test results reported in publication PMC6826779, “Bis-allylic Deuterated DHA Alleviates Oxidative Stress in Retinal Epithelial Cells” (Antioxidants, 2019).

Tests used:
15-sLOX = target: T1, 15-sLOX (Glycine max, UniProt P08170); test: LC-MS/MS of 15s-LOX oxidized samples (product profile); format: biochemical, Glycine max (soybean); settings: 0.1 mM substrate, 30 min reaction, room temperature
T1 sequence (P08170 1-839): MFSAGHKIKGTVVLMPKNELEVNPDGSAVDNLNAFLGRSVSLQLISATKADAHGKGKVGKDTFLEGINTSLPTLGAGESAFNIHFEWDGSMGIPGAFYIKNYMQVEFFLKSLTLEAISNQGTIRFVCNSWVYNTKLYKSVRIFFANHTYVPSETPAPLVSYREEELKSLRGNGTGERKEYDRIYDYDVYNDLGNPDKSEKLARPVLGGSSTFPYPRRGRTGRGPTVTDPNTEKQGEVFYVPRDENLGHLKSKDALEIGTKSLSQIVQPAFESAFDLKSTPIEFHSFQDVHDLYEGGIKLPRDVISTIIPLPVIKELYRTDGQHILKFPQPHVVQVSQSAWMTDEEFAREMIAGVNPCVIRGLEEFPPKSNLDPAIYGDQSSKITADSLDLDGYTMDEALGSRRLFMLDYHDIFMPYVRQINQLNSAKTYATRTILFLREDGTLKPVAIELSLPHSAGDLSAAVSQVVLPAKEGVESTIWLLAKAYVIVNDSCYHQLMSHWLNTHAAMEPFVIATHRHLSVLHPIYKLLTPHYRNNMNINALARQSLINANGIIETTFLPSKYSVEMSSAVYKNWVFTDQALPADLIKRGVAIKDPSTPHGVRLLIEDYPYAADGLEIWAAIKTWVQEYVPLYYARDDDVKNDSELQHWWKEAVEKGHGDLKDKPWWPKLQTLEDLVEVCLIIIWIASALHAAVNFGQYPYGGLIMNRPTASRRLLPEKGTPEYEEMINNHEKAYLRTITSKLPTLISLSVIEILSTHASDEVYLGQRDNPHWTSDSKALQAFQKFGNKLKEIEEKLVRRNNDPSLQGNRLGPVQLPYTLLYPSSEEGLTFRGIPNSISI
Procedure: In order to gain insights on the nature of the produced metabolites, LC-MS/MS analysis of the reaction products were carried out. To this end, the respective DHA variants (0.1 mM) were incubated in a 2 mL eppendorf tube with 10 µL 15-sLOX (4 mg/mL) in sodium borate buffer (50 mM, pH 9) for 30 min at room temperature and the reaction quenched by the addition of cold MeOH (760 µL). The hydroperoxides were reduced with the addition of aq. SnCl2 (50 µL, 5 mg/mL) and subsequently the mixture was centrifuged (16,100 ×g for 5 min). Water (2 mL) was added to the supernatant, followed by the dropwise addition of glacial acetic acid (40 µL). The products were purified by SPE using SepPak 200 mg C18 cartridges (3CC), according to published protocols. The methyl formate eluates were evaporated to dryness, dissolved in MeOH (0.5 mL) and stored at −80 °C until analysis. The resulting solution was diluted 1000 times with MeOH for LC-MS/MS measurements. To 120 µL water, 72 µL of MeOH, 4 µL of the diluted solution and 4 µL of an internal standard (15-HETE-d8, Leukotriene LTB4-d4 and DHA-d5) was added. The samples were loaded in a SIL-30AC autosampler and the analytes separated on a Kinetex 1.7 µm C18 100Å, 50 × 2.1 mm LC column as described. The detection of DHA metabolites was performed in selected ion monitoring mode using several traces in order to take the eventual loss of a deuterium atom into account. The following traces were used: m/z 327.2, 343.2, 359.2 and 375.2 for DHA and its metabolites, m/z 327.2, 328.2, 329.2, 344.2, 345.2, 360.2, 361.2, 376.2, 377.2 for D2-DHA, m/z 331.2, 345.3, 346.2, 361.2, 362.3, 363.2, 377.2, 378.2 and 379.2 for D4-DHA and m/z 337.2, 352.2, 353.2, 367.2, 368.2, 369.2, 383.2, 384.2 and 385.2 for D10-DHA. Tandem mass spectra were recorded as product ion scans. Quantification of the metabolites was done by calculating the area ratio between the analyte and the internal standard (DHA-d5 for non-hydroxylated, 15-HETE-d8 for mono-hydroxylated and LTB4-d4 for di-hydroxylated derivatives) using Multiquant version 3.0.2.

ARPE-19 cells = test: Lipid peroxidation status with C11-Bodipy581/591 probe (FACS) under oxidative conditions; format: cell-based; settings: ARPE-19, 50 µM for 24 h
Procedure: ARPE-19 cells were plated into 2 cm^2 wells (2 × 10^5 cells/well) and cultured for 24 h to reach confluence before PUFA or lipophenol treatment. The cell cultures were treated with 1% FBSM containing tested compounds (deuterated DHAs or deuterated lipophenols) at 50 μM for 24 h and then rinsed with media before the incubation of 5 µM C11-Bodipy^581/591 for 30 min. Then, the cells were rinsed and treated with the different stressors, corresponding to different protocols. For chemical stress the cells were incubated with 400 µM of H2O2 during 24 h followed by FACS analysis. For photobleaching stress, the cells were exposed to a white LED lamp with an intensity of 5000 lux at room temperature during 1 h followed by the FACS analysis.
FACS was performed with the BD Accuri C6 Flow Cytometer and BD Accuri C6 Software for data acquisition (BD Biosciences). This flow cytometer is equipped with an excitation laser at 488 nm, and a fluorescence detector FL1 533/30 nm. Data were collected to 10,000 events for each sample using a flow rate of 35 µL/min. Parameters obtained for data analysis included: cell size from the forward scatter (FSC), granularity from the side scatter (SSC) and the green fluorescence of the stained cells with C11-Bodipy^581/591.
First the SSC-A versus FSC-A dot-plot was used to gate the cellular population and remove the cellular debris. Then the SSC-A versus SSC-H dot-plot was used to remove cell doublets in the previous gate to give a final gate. The cellular population in the last gate designed was plotted on count versus log green fluorescence to give the fluorescence mean intensity of FL1. The mean FL1 values were normalized to the cells only stained with C11-Bodipy^581/591.

[1] = serum starvation (1% FBSM) 24 h
[2] = serum starvation (1% FBSM) 48 h

| Compound | pre-dominant product of 15-sLOX oxidation (LC-MS) (15-sLOX) | lipid peroxidation status (C11-BODIPY fluorescence) (ARPE-19 cells; [1]) | lipid peroxidation status (C11-BODIPY fluorescence) (ARPE-19 cells; [2]) | lipid peroxidation status (C11-BODIPY fluorescence) (ARPE-19 cells; then H2O2 400 µM 24 h) | lipid peroxidation status (C11-BODIPY fluorescence) (ARPE-19 cells; then photobleaching (white light, 5000 lux, 1 h)) |
| --- | --- | --- | --- | --- | --- |
| [2H]C([2H])(/C=C\C/C=C\C/C=C\C/C=C\C/C=C\CC)/C=C\CCC(=O)O [D2-DHA, (6,6-D2)-DHA] | double oxygenation product 10S,17S-diHDHA | decreased lipid peroxidation status with the same efficiency, reaching oxidation levels of untreated cells |  |  |  |
| [2H]C([2H])(C=CCC=CCC=CCC=CCC)C=CC([2H])([2H])C=CCCC(=O)O [D4-DHA, (6,6,9,9-D4)-DHA] | double oxygenation product 10S,17S-diHDHA | decreased lipid peroxidation status with the same efficiency, reaching oxidation levels of untreated cells | reach radical levels close to untreated cells | more effective than D2-DHA |  |
| CC/C=C\C/C=C\C/C=C\C/C=C\C/C=C\C/C=C\CCC(=O)O [Natural DHA, docosahexaenoic acid, reference compound] | double oxygenation product 10S,17S-diHDHA |  | increase in lipid peroxidation status compared to untreated cells | increase of oxidation | increase in lipid peroxidation under photobleaching-stress |
